Test results published in publication PMC10164576, “Interaction with the carboxy-terminal tip of SSB is critical for RecG function in E. coli” (Nucleic Acids Research, 2023).
Where no end group is shown, it is not given here.

Molecular target: RecG R474E (Escherichia coli, UniProt P24230, R474E)
Assay: Fluorescence anisotropy binding of 6-FAM-labelled SSB-Ct peptide to RecG R474E
Parameters: species or system E. coli
Conditions: 10 nM 6-FAM peptide, pH 7.6, 25°C, triplicate, read-out: FP K D
Text: In vivo assembly mutagenesis ([78]) was used to introduce the R474E or R95A mutation into RecG overexpression plasmid pEAW111 to create variant overexpression plasmids pNJB3 and pEAW1324, respectively. RecG R474E or RecG R95A were expressed in STL2669/pT7pol26 and purified using the same purification scheme as wildtype RecG. The purified proteins appeared as single bands on SDS-PAGE gels and were quantified using monomer extinction coefficient ε280 nm = 5.022 × 10^4 M^−1 cm^−1. The RecG R95A preparation included a very weak nickase contaminant.
SSB peptides (sequences listed in Figure 2) were designed with an N-terminal tryptophan residue for quantification and N-terminal 6-FAM label (Genscript). […] Fluorescence polarization (FP) values were measured at 25°C using a Beacon 2000 Fluorescence Polarization System. Polarization values were normalized to the FP value measured at 0 nM RecG. […]
To more rigorously and quantitatively test the RecG HD2/SSB-Ct binding model, a RecG variant in which one of the putative SSB-binding residues is altered (RecG R474E) was purified and tested for binding to the SSB-Ct peptide and to full-length SSB in vitro. […] Binding was not detected in either titration (Figure 4C). […]

## WMDFDDDIPF [SSB-Ct peptide]
  Kd: > 30 µM
